Type in all cases: cell-based, human
In one assay the test system is U937 cell line. Put plainly: Cell growth, cell counts (trypan blue exclusion). The settings on record: U937, 1 µM up to 30 µM, four days. The method, then:
(§1) • Figure 1 Fluorescence Anisotropy Assay. Average anisotropy values: (open square) binding assay for increasing concentrations of Bcl-XL at a fixed concentration of fluorescent Bak-BH3 peptide. […] The error bars represent standard deviations observed from triplicate experiments. • Figure 2 072RB: cell growth effects. Panel A: Cell growth of U937 cell line treated for four days every 24 h at a 1 µM 072RB concentration and every 48 h at 3, 5, 10 and 30 µM 072RB concentrations. U937 controls at day 4, cell number: 350,000 ±50,000. Number of cells seeded at day 0: 20,000. Arrows indicate treatment time. […] All cells were counted in a Burker chamber and values are expressed as percentage of the untreated control cell number. Only living cells identified by trypan blue exclusion staining were counted. […] Flow cytometry measurements of DNA content (evaluated by propidium iodide (PI) fluorescence intensity) and physical cell side-scattering (evaluated by SSC) in U937 cells treated with Int and 072RB at 10 µM, twice each 48h. […] Three main cell populations can be observed in the bivariate PI/SSC plots, one with low SSC and normal DNA content (that accounts for "live" cells in culture), another with high SSC and normal DNA content (cells undergoing "early stage of apoptosis") and another one with lower PI fluorescence (cells at "late stage of apoptosis" and debris). […]

For assay [1], the system named is tumour cell lines. Description: Propidium iodide (PI) uptake test, cell viability. The settings on record: treated for 4 days; data not shown. The procedure: PI uptake tests were performed to assess cell viability. Cells suspended in culture medium were incubated for 5 min with 3 µg/ml PI and analysed by flow cytometry. […] At least 10,000 events were acquired on a logarithmic scale from each sample.
Based on the results reported above we selected treatment concentrations of 5 µM and 10 µM for subsequent experiments. […] To evaluate whether the decreased cell growth was due to cell cycle arrest, cell death, or both, flow cytometry assays to assess cell viability and cell cycle behavior were performed. […] Flow cytometry measurements of DNA content and side scatter confirmed that the main cause of cell growth inhibition after 2 or 4 days of 072RB treatment at 5, 10 or 30 µM respectively, was cell death rather than cell cycle perturbation, as shown in Figure 3A for U937 cells. Three main cell populations can be observed in bivariate plots of side scatter (SSC) vs. DNA content (PI fluorescence), one with low SSC and normal DNA content (that accounts for cells "alive" in culture), another with high SSC and normal DNA content (cells undergoing "an early stage of apoptosis ") and another one with lower PI fluorescence (cells at "a late stage of apoptosis" and debris). The respective DNA histograms (projection of the dot plots on the x-axis) are reported for each plot. […]

For assay [2], the system named is tumour cell lines. Put plainly: DNA flow cytometry (PI/SSC) for apoptosis in tumour cell lines. The note with it: 4 days. The method, then:
as §1

The text below walks through data of patent publication EP1985629A1, “Pro-apoptotic molecules and therapeutic uses thereof” (UNIVERSITA DEGLI STUDI DI GENOVA, priority 2007, dated 2008).

Where a SMILES comes first, the peptide text is derived from it. [ ]: non-standard residue; d: D form. Aib = CC(C)(N)C(=O)O

On to `CC[C@H](C)[C@H](NC(=O)[C@H](CCCNC(=N)N)NC(=O)[C@H](CCCNC(=N)N)NC(=O)[C@H](CC(C)C)NC(=O)[C@H](CCC(=O)O)NC(=O)[C@H](CCC(N)=O)NC(=O)C(C)(C)NC(=O)[C@@H](NC(=O)[C@H](Cc1ccc(O)cc1)NC(=O)[C@@H](NC(=O)[C@H](CCC(=O)O)NC(=O)[C@@H]1CCCN1C(=O)[C@H](CCCNC(=N)N)NC(=O)[C@H](CCSC)NC(=O)[C@@H](N)CC(=O)O)[C@@H](C)CC)[C@@H](C)CC)C(=O)NCC(=O)N[C@@H](CC(=O)O)C(=O)N[C@@H](C)C(=O)N[C@@H](Cc1ccccc1)C(=O)N[C@@H](CC(N)=O)C(=O)NC(C)(C)C(=O)N[C@@H](Cc1ccc(O)cc1)C(=O)N[C@@H](CCCCN)C(=O)N[C@@H](CCCCN)C(=O)N[C@@H](Cc1c[nH]c2ccccc12)C(=O)N[C@@H](CCCCN)C(=O)N[C@@H](CCSC)C(=O)N[C@@H](CCCNC(=N)N)C(=O)N[C@@H](CCCNC(=N)N)C(=O)N[C@@H](CC(N)=O)C(=O)N1CCC[C@H]1C(=O)N[C@@H](Cc1ccccc1)C(=O)N[C@@H](Cc1c[nH]c2ccccc12)C(=O)N[C@H](C(=O)N[C@@H](CCCCN)C(=O)N[C@H](C(=O)N[C@@H](CCC(N)=O)C(=O)N[C@@H](CCCNC(=N)N)C(N)=O)[C@@H](C)CC)[C@@H](C)CC` [Peptide 072RB] (H-DMRPEIYI[Aib]QELRRIGDAFN[Aib]YKKWKMRRNPFWIKIQR-NH2; N-terminus and C-terminus assumed), for which the “cell growth (cell counts)” value in the assay on U937 cell line was “dose-dependent inhibition of cell growth”. Moreover, the “cell death (PI uptake test)” value with tumour cell lines [1] is given as “dose-dependent cell death”. Besides, the “cell death (alive, early- and late-apoptotic fractions)” value in the assay on tumour cell lines [2] (three tumour cell lines, 5 to 10 µM) was “Significant cell death”.
As to “KKWKMRRNPFWIKIQR [Int, internalisation tag, a modified Q50P 16 aa Antennapedia IIIrd α-helix, reference compound]”, in the assay with tumour cell lines [2] (three cancer lines, 10 µM), the “cell death (alive, early- and late-apoptotic fractions)” value was “substantially inactive”.
